Measured values as given in patent US12643879B2, “Functionalized heterocyclic compounds as modulators of stimulator of interferon genes (STING)” (RYVU THERAPEUTICS S.A., priority 2019, dated 2026).
Structures can show the parent of a compound that is named as a salt. Where two headings read alike, the source gives them in different places.

Columns and labels:
[1] = test system: interferon regulatory factor (IRF) pathway in THP-1 dual cells; experiment: THP-1 Dual reporter assay, IRF pathway (luciferase); assay type: cell-based; details: 18 h stimulation, luminescence, read-out: THP1 Dual EC50 (μM) IRF
Procedure: (§1) Compounds of the present invention were tested for their activity using THP-1 dual cells (Invivogen, cat no. thpd-nfis) allowing for simultaneous study of NF-κB pathway and the interferon regulatory factor (IRF) pathway. THP-1 dual cells contain luciferase reporter gene under the control of an ISG54 (interferon-stimulated gene) minimal promoter in conjunction with five interferon-stimulated response elements and a secreted embryonic alkaline phosphatase reporter gene under the control an IFN (interferon)-β minimal promoter fused to five copies of the NF-κB consensus transcriptional response element with three copies of the c-Rel binding site. Following 18 h of stimulation with STING agonist, medium was collected and transferred onto fresh cell culture plate. To verify activity of the IRF pathway, luminescence activity was measured with standard laboratory plate reader immediately after addition 10 μl of the medium to 40 or 50 μl of luminescence reagent (Invivogen, cat. No. rep-qlc2). To verify activity of NF-κB pathway, 10 or 20 μl of the medium was mixed with 80 μl of a detection medium (Invivogen, cat. No. rep-qb2) and incubated for 1 or 2 hours at 37° C. in a humidified atmosphere containing 5% CO2. Next, absorbance at 630 or 655 nm was recorded using standard laboratory plate reader.

[2] = test system: NF-κB pathway in THP-1 dual cells; experiment: THP-1 Dual reporter assay, NF-κB pathway (SEAP); assay type: cell-based; details: Homo sapiens, THP1-Dual; 18 h stimulation, absorbance at 630 or 655 nm; read-out: THP1 Dual EC50 (μM) NFkB
Procedure: as §1

SMILES | EC50 ([1]; Homo sapiens, THP1-Dual) [µM] | EC50 [2] [µM] | EC50 [1] [µM]
Cc1ccc(N2CCC[C@H](N(Cc3ccnc(C)c3)Cc3cn(C)c4cc(N5CC[C@@H](N)C(F)(F)C5)ccc4c3=O)C2)cn1 (single isomer, unassigned) [Example 50] | < 1 | < 1 | 
Cc1ccc(N2CCC[C@H](N(Cc3ccnc(C)c3)Cc3cn(C4CC4)c4cc(N5CC[C@@H](N)C(F)(F)C5)c(F)cc4c3=O)C2)cn1.Cl (single isomer, unassigned) [Example 56, 7-[(4R)-4-amino-3,3-difluoropiperidin-1-yl]-1-cyclopropyl-6-fluoro-3-({[(3S)-1-(6-methylpyridin-3-yl)piperidin-3-yl][(2-methylpyridin-4-yl)methyl]amino}methyl)-1,4-dihydroquinolin-4-one] | < 1 | < 1 | 
Cc1ccc(N2CCC[C@H](N(Cc3ccnc(C)c3)Cc3cn(C4CC4)c4cc(N5CC[C@H](N)C(F)(F)C5)c(F)cc4c3=O)C2)cn1.Cl (single isomer, unassigned) [Example 57, 7-[(4S)-4-amino-3,3-difluoropiperidin-1-yl]-1-cyclopropyl-6-fluoro-3-({[(3S)-1-(6-methylpyridin-3-yl)piperidin-3-yl][(2-methylpyridin-4-yl)methyl]amino}methyl)-1,4-dihydroquinolin-4-one] | < 1 | < 1 | 
Cc1ccc(N2CCC[C@H](N(Cc3ccnc(C)c3)Cc3cn(C4CC4)c4cc(N5CCO[C@@H](CO)C5)c(F)cc4c3=O)C2)cn1 (single isomer, unassigned) [Example 72] | < 1 | < 1 | 
Cc1ccc(N2CCC[C@H](N(Cc3ccnc(C)c3)Cc3cn(C4CC4)c4cc(N5CCO[C@H](CO)C5)c(F)cc4c3=O)C2)cn1 (single isomer, unassigned) [Example 73] | < 1 | < 1 | 
Cc1cc(CN(Cc2cn(C3CC3)c3cc(N4CCC(CO)C4)c(F)cc3c2=O)[C@H]2CCCN(c3cccnc3)C2)ccn1 (stereo in doubt) [Example 88, 1-cyclopropyl-6-fluoro-7-[(3R)-3-(hydroxymethyl)pyrrolidin-1-yl]-3-({[(2-methylpyridin-4-yl)methyl][(3S)-1-(pyridin-3-yl)piperidin-3-yl]amino}methyl)-1,4-dihydroquinolin-4-one hydrochloride] |  |  | < 1
C#CCOCCOCCOCCOCCOCCC(=O)Nc1ccc(N2CCC[C@H](N(Cc3ccnc(OC)c3)Cc3cn(C4CC4)c4cc(F)c(F)cc4c3=O)C2)cn1 [Example 4A, N-{5-[(3S)-3-{[(1-cyclopropyl-6,7-difluoro-4-oxo-1,4-dihydroquinolin-3-yl)methyl][(2-methoxypyridin-4-yl)methyl]amino}piperidin-1-yl]pyridin-2-yl}-4,7,10,13,16-pentaoxanonadec-18-ynamide] | < 1 | < 1 | 
Cc1ccc(N2CCC[C@H](N(Cc3ccnc(C)c3)Cc3cn(C4CC4)c4cc(OCCNC(=O)OCc5ccc(NC(=O)[C@H](CCCNC(N)=O)NC(=O)[C@@H](NC(=O)CCOCCOCCOCCN=[N+]=[N-])C(C)C)cc5)c(F)cc4c3=O)C2)cn1 [Example 10A, {4-[(2S)-2-[(2S)-2-(3-{2-[2-(2-azidoethoxy)ethoxy]ethoxy}propanamido)-3-methyl-butanamido]-5-(carbamoylamino)pentanamido]phenyl}methyl N-(2-{[1-cyclopropyl-6-fluoro-3-({[(3S)-1-(6-methylpyridin-3-yl)piperidin-3-yl][(2-methylpyridin-4-yl)methyl]amino}methyl)-4-oxo-1,4-dihydroquinolin-7-yl]oxy}ethyl)carbamate] | > 10 | > 10 | 
Cc1ccc(N2CCC[C@H](N(Cc3ccnc(C)c3)Cc3cn(C4CC4)c4cc(OCCN(C)C(=O)COCCOCCN)c(F)cc4c3=O)C2)cn1 [Example 11A, 2-[2-(2-aminoethoxy)ethoxy]-N-(2-{[1-cyclopropyl-6-fluoro-3-({[(3S)-1-(6-methylpyridin-3-yl)piperidin-3-yl][(2-methylpyridin-4-yl)methyl]amino}methyl)-4-oxo-1,4-dihydroquinolin-7-yl]oxy}ethyl)-N-methylacetamide] | 1 to 10 | 1 to 10 | 
Cc1ccc(N2CCC[C@H](N(Cc3ccnc(C)c3)Cc3cn(C4CC4)c4cc(OCCN(C)C(=O)CCOCCOCCOCCN)c(F)cc4c3=O)C2)cn1 [Example 11B, 3-{2-[2-(2-aminoethoxy)ethoxy]ethoxy}-N-(2-{[1-cyclopropyl-6-fluoro-3-({[(3S)-1-(6-methylpyridin-3-yl)piperidin-3-yl][(2-methylpyridin-4-yl)methyl]amino}methyl)-4-oxo-1,4-dihydroquinolin-7-yl]oxy}ethyl)-N-methylpropanamide] | 1 to 10 | 1 to 10 | 
Cc1ccc(N2CCC[C@H](N(Cc3ccnc(C)c3)Cc3cn(C4CC4)c4cc(OCCN(C)CCOCCOCCOCCOCCN)c(F)cc4c3=O)C2)cn1 [Example 11C, 7-[(1-amino-15-methyl-3,6,9,12-tetraoxa-15-azaheptadecan-17-yl)oxy]-1-cyclopropyl-6-fluoro-3-({[(3S)-1-(6-methylpyridin-3-yl)piperidin-3-yl][(2-methylpyridin-4-yl)methyl]amino}methyl)-1,4-dihydroquinolin-4-one] | 1 to 10 | 1 to 10 | 
Cc1ccc(N2CCC[C@H](N(Cc3ccnc(C)c3)Cc3cn(C4CC4)c4cc(OCCN(C)C(=O)CCOCCOCCOCCOCCOCCOCCOCCN)c(F)cc4c3=O)C2)cn1 [Example 11D, 1-amino-N-(2-{[1-cyclopropyl-6-fluoro-3-({[(3S)-1-(6-methylpyridin-3-yl)piperidin-3-yl][(2-methylpyridin-4-yl)methyl]amino}methyl)-4-oxo-1,4-dihydroquinolin-7-yl]oxy}ethyl)-N-methyl-3,6,9,12,15,18,21-heptaoxatetracosan-24-amide] | 1 to 10 | 1 to 10 | 
Cc1ccc(N2CCC[C@H](N(Cc3ccnc(C)c3)Cc3cn(C4CC4)c4cc(OCCN(C)C(=O)CCOCCOCCOCCOCCOCCOCCOCCC(=O)O)c(F)cc4c3=O)C2)cn1 [Example 11E, 1-[(2-{[1-cyclopropyl-6-fluoro-3-({[(3S)-1-(6-methylpyridin-3-yl)piperidin-3-yl][(2-methylpyridin-4-yl)methyl]amino}methyl)-4-oxo-1,4-dihydroquinolin-7-yl]oxy}ethyl)(methyl)carbamoyl]-3,6,9,12,15,18,21-heptaoxatetracosan-24-oic acid] | 1 to 10 | 1 to 10 | 
C#CCOCCOCCOCCOCCOCCC(=O)Nc1ccc(COC(=O)N(C)CCOc2cc3c(cc2F)c(=O)c(CN(Cc2ccnc(C)c2)[C@H]2CCCN(c4ccc(C)nc4)C2)cn3C2CC2)cc1 [Example 11F, [4-(4,7,10,13,16-pentaoxanonadec-18-ynamido)phenyl]methyl N-(2-{[1-cyclopropyl-6-fluoro-3-({[(3S)-1-(6-methylpyridin-3-yl)piperidin-3-yl][(2-methylpyridin-4-yl)methyl]amino}methyl)-4-oxo-1,4-dihydroquinolin-7-yl]oxy}ethyl)-N-methylcarbamate] | < 1 | < 1 | 
Cc1ccc(N2CCC[C@H](N(Cc3ccnc(C)c3)Cc3cn(C4CC4)c4cc(OCCN(C)C(=O)CCOCCOCCOCCC(=O)O)c(F)cc4c3=O)C2)cn1 [Example 11G, 3-[2-(2-{2-[(2-{[1-cyclopropyl-6-fluoro-3-({[(3S)-1-(6-methylpyridin-3-yl)piperidin-3-yl][(2-methylpyridin-4-yl)methyl]amino}methyl)-4-oxo-1,4-dihydroquinolin-7-yl]oxy}ethyl)(methyl)carbamoyl]ethoxy}ethoxy)ethoxy]propanoic acid formate] | 1 to 10 | 1 to 10 | 
Cc1ccc(N2CCC[C@H](N(Cc3ccnc(C)c3)Cc3cn(C4CC4)c4cc(OCCN(C)C(=O)OCc5ccc(NC(=O)[C@H](CCCNC(N)=O)NC(=O)[C@@H](NC(=O)CCOCCOCCOCCN=[N+]=[N-])C(C)C)cc5)c(F)cc4c3=O)C2)cn1 [Example 11H, {4-[(2S)-2-[(2S)-2-(3-{2-[2-(2-azidoethoxy)ethoxy]ethoxy}propanamido)-3-methyl-butanamido]-5-(carbamoylamino)pentanamido]phenyl}methyl N-(2-{[1-cyclopropyl-6-fluoro-3-({[(3S)-1-(6-methylpyridin-3-yl)piperidin-3-yl][(2-methylpyridin-4-yl)methyl]amino}methyl)-4-oxo-1,4-dihydroquinolin-7-yl]oxy}ethyl)-N-methylcarbamate] | > 10 | > 10 | 
Cc1ccc(N2CCC[C@H](N(Cc3ccnc(C)c3)Cc3cn(C4CC4)c4cc(N5CC[C@@H](NC(=O)OCc6ccc(NC(=O)[C@H](CCCNC(N)=O)NC(=O)[C@@H](NC(=O)CCOCCOCCOCCN=[N+]=[N-])C(C)C)cc6)C5)c(F)cc4c3=O)C2)cn1 [Example 12A, {4-[(2S)-2-[(2S)-2-(3-{2-[2-(2-azidoethoxy)ethoxy]ethoxy}propanamido)-3-methyl-butanamido]-5-(carbamoylamino)pentanamido]phenyl}methyl N-[(3R)-1-[1-cyclopropyl-6-fluoro-3-({[(3S)-1-(6-methylpyridin-3-yl)piperidin-3-yl][(2-methylpyridin-4-yl)methyl]amino}methyl)-4-oxo-1,4-dihydroquinolin-7-yl]pyrrolidin-3-yl]carbamate] | 1 to 10 | > 10 | 
